Patent US9416115B2, “Fused heterocyclic compounds as ion channel modulators” (Gilead Sciences, Inc., priority 2013, dated 2016)

Target: hNav1.7 (Homo sapiens, UniProt Q15858)
Assay: Voltage-dependent inhibition of the Nav1.7 sodium channel
Assay type: cell-based
Details: voltage-dependent block of peak current
Experimental: HEK-293 cells stably expressing wild-type (WT) hNav1.7 were obtained from Scottish Biomedical (Glasgow, Scotland, United Kingdom). Cells are maintained with standard tissue culture procedures and stable channel expression is maintained with 500 ug/mL G418 in the culture medium. Unless otherwise noted, all reagents are purchased from Sigma-Aldrich (St Louis, Mo., U.S.A.).
Assays measuring Voltage-Dependent Block (VDB) of Nav1.7 are performed on an automated electrophysiology platform, QPatch 16X or QPatch HT (Sophion Bioscience, Copenhagen, Denmark), using the whole cell patch clamp technique to measure currents through the cell membrane. Series resistance compensation is set to 100% and series resistance and whole-cell compensation are performed automatically. Currents stored in the Sophion Bioscience Oracle database (Sophion Bioscience, Copenhagen, Denmark). Analysis is performed using QPatch Assay software and data are compiled in Excel 2010 (Microsoft, Seattle, Wash., U.S.A.).
The internal (pipette) solution consists of (in mM) 105 CsF, 10 NaF, 20 CsCl, 2 EGTA, 10 HEPES, 10 Dextrose with a pH of 7.35 and osmolarity of 300 mOsmol/kg. The external (bath) solution contains in (mM): 140 NaCl, 4 KCl, 1.8 CaCl2, 1 MgCl2, 10 dextrose, 10 HEPES, with a pH of 7.35 and osmolarity of 310 mOsmol/kg. Experiments are carried out at 23-25° C.
Compound stocks are routinely made by the Gilead Sample Bank in vials to 10 mM in dimethyl sulfoxide (DMSO). In some cases, when compounds are not soluble in DMSO, they are made in 100% ethanol. Stocks are sonicated as necessary. Compounds are diluted in extracellular solution using a MicroLab Nimbus (Hamilton Robotics, Reno, Nev.) to 1 μM in glass vials and transferred to glass well plates before robotic addition to the cells.
Cells are allowed to stabilize for 10 min after establishment of the whole-cell configuration before current is measured. The test compound is applied 3 times at 120 second intervals to allow for equilibration. Currents were leak subtracted using a P/4 procedure, low-pass Bessel filtered at 5 kHz and digitized at 25 kHz. Results are presented as mean percentage inhibition.
Voltage-dependent block of Nav1.7 peak current was measured during a voltage step to 0 mV (20 ms) following a voltage step pre-conditioning steps (−60 mV for 10 sec followed by −120 mV for 10 ms). The holding potential was −120 mV and this voltage protocol induces half maximal inactivation of Nav1.7. The voltage protocol for VDB was performed every 45 seconds in the absence and presence of compound and percentage inhibition was calculated with respect to the compound free condition.

hNav1.7, sequence (Q15858 whole entry): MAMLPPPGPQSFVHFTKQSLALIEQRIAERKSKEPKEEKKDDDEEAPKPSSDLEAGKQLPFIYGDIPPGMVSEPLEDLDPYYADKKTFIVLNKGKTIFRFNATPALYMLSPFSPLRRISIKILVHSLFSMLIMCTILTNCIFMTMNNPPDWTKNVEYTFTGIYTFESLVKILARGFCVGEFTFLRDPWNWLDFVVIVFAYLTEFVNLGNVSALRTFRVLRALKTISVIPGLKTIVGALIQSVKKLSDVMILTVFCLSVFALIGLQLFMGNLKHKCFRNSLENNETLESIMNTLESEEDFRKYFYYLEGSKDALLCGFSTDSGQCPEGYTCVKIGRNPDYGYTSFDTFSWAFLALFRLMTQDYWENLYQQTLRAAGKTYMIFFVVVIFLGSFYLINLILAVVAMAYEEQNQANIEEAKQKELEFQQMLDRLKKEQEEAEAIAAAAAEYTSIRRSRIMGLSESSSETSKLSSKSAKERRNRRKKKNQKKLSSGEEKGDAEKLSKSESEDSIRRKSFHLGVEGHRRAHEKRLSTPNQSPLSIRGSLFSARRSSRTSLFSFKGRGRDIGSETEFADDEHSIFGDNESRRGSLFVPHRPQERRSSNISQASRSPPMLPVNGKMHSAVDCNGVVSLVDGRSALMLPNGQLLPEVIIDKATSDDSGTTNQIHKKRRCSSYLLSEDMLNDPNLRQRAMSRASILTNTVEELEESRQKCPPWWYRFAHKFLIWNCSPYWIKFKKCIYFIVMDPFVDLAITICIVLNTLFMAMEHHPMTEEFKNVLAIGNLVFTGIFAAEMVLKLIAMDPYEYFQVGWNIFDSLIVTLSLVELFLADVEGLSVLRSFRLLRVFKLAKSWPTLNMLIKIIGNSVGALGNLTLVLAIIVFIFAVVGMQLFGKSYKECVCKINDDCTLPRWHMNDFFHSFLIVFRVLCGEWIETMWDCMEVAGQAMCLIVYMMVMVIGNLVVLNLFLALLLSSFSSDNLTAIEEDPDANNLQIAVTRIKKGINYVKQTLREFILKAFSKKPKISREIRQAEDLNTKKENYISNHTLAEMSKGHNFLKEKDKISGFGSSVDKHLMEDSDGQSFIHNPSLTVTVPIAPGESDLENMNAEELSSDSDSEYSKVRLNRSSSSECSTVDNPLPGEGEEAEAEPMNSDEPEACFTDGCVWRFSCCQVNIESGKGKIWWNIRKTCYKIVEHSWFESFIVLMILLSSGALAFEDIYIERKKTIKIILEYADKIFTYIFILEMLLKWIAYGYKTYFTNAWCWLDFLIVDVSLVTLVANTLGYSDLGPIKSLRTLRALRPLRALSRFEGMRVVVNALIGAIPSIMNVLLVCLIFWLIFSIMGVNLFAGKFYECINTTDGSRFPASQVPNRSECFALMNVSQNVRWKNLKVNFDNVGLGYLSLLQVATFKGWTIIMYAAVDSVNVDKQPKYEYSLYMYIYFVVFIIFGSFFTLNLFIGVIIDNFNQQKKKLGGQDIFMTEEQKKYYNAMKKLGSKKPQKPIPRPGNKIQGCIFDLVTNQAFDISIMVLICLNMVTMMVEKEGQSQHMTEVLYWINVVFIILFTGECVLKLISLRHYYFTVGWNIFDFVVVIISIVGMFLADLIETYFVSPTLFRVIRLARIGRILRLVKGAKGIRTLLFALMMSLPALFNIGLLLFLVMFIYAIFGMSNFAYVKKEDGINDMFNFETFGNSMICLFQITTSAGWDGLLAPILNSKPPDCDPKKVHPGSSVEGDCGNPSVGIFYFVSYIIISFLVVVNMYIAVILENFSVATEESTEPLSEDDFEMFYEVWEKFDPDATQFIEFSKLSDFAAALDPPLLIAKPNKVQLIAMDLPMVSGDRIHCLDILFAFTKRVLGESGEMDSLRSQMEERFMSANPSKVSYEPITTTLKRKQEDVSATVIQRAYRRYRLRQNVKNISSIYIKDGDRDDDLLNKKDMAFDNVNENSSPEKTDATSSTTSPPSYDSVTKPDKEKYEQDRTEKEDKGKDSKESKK

First: Cc1nnc(COc2noc3ccc(-c4ccc(OC(F)(F)F)cc4)cc23)o1 [Example 99, 3-((5-methyl-1,3,4-oxadiazol-2-yl)methoxy)-5-(4-(trifluoromethoxy)phenyl)benzo[d]isoxazole]
Second: FC(F)(F)Oc1cccc(-c2ccc3onc(OCc4ncccn4)c3c2)c1 [Example 10, 3-(pyrimidin-2-ylmethoxy)-5-(3-(trifluoromethoxy)phenyl)benzo[d]isoxazole]
The “Nav 1.7-VDB 1 uM” value of the first is higher: 59.3 percentage inhibition for the first, 10.0 percentage inhibition for the second.

Going from `COc1cc(OC(F)(F)F)ccc1-c1ccc2onc(OCc3ncccn3)c2c1` [Example 4, 5-(2-methoxy-4-(trifluoromethoxy)phenyl)-3-(pyrimidin-2-ylmethoxy)benzo[d]isoxazole] to `Fc1cc(C(F)(F)F)ccc1-c1ccc2onc(OCc3ncccn3)c2c1` [Example 6, 5-(2-fluoro-4-(trifluoromethyl)phenyl)-3-(pyrimidin-2-ylmethoxy)benzo[d]isoxazole], the “Nav 1.7-VDB 1 uM” value falls from 28.6 percentage inhibition to 15.6 percentage inhibition.
